Reference: ChEMBL document CHEMBL1201862, “PubChem BioAssay data set” (2004)
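96-well plates; 48 h exposure; 5 concentrations. Endpoints by linear interpolation between flanking doses. Not reached: highest tested concentration assigned. Here, GI50 denotes the concentration required for 50% inhibition of growth.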 Active and inactive are the calls of the source. Rule as the data show it: active = GI50 up to about 1.1 µM and inactive = higher.

How the values were obtained:
Assay in all cases: NCI-60 cell line screen, 48 h
NCI-H23 = system: NCI-H23
HCT-15 = system: HCT-15
KM-20L2 = system: KM-20L2
DMS-114 = system: DMS-114
MOLT-4 = system: MOLT-4
EKVX = system: EKVX
HT-29 = system: HT-29
CCRF-CEM = system: CCRF-CEM
CAKI-1 = system: CAKI-1
DMS-273 = system: DMS-273
SF-539 = system: SF-539
A498 = system: A498
HL-60 = system: HL-60
A549 = system: A549
SNB-19 = system: SNB-19
M14 = system: M14
HCC 2998 = system: HCC 2998
UACC-257 = system: UACC-257
SR = system: SR
OVCAR-3 = system: OVCAR-3
HOP-18 = system: HOP-18
DLD-1 = system: DLD-1
K562 = system: K562
NCI-H460 = system: NCI-H460
RXF 393 = system: RXF 393
SN12C = system: SN12C
SNB-75 = system: SNB-75
U-251 = system: U-251
RPMI-8226 = system: RPMI-8226
KM12 = system: KM12
HOP-62 = system: HOP-62
UACC-62 = system: UACC-62
OVCAR-4 = system: OVCAR-4
ACHN = system: ACHN
786-0 = system: 786-0
SK-MEL-28 = system: SK-MEL-28
LXFL 529 = system: LXFL 529
SNB-78 = system: SNB-78
SW-620 = system: SW-620
M19-MEL = system: M19-MEL
SK-MEL-2 = system: SK-MEL-2
HOP-92 = system: HOP-92
UO-31 = system: UO-31
IGROV-1 = system: IGROV-1
COLO 205 = system: COLO 205
HCT-116 = system: HCT-116
OVCAR-8 = system: OVCAR-8
SF-295 = system: SF-295
XF498 = system: XF498
SK-MEL-5 = system: SK-MEL-5
LOX IMVI = system: LOX IMVI
SK-OV-3 = system: SK-OV-3
TK-10 = system: TK-10
NCI-H522 = system: NCI-H522
Malme-3M = system: Malme-3M
NCI-H226 = system: NCI-H226
SF-268 = system: SF-268
OVCAR-5 = system: OVCAR-5

How did the GI50 (NCI-H23) turn out when COC1C(OC(=S)Nc2ccccc2)c2ccccc2N1C(C)=O (stereo unspecified) was run?
The GI50 was > 100 µM (inactive).

What about the GI50 (HCT-15) of the same compound?
The GI50 was 52.1 µM.

What about the GI50 (KM-20L2) of the same compound?
Its GI50 is 57.4 µM (inactive).

What about the GI50 (DMS-114) of the same compound?
Its GI50 is 60.7 µM (inactive).

What about the GI50 (MOLT-4) of the same compound?
The GI50 was 44 µM (inactive).

And the GI50 (EKVX)?
The GI50 was > 100 µM (inactive).

What about the GI50 (HT-29) of the same compound?
Its GI50 is 99.1 µM (inactive).

What about the GI50 (CCRF-CEM) of the same compound?
Its GI50 is 64.4 µM (inactive).

And the GI50 (CAKI-1)?
Its GI50 is 85.1 µM (inactive).

What about the GI50 (DMS-273) of the same compound?
Its GI50 is 85.3 µM (inactive).

And the GI50 (SF-539)?
Its GI50 is > 100 µM (inactive).

What about the GI50 (A498) of the same compound?
Its GI50 is > 100 µM (inactive).

What about the GI50 (HL-60) of the same compound?
Its GI50 is 72.8 µM (inactive).

What about the GI50 (A549) of the same compound?
Its GI50 is 87.7 µM (inactive).

And the GI50 (SNB-19)?
The GI50 was > 100 µM (inactive).

What about the GI50 (M14) of the same compound?
The GI50 was 89.3 µM (inactive).

What about the GI50 (HCC 2998) of the same compound?
Its GI50 is > 100 µM (inactive).

What about the GI50 (UACC-257) of the same compound?
Its GI50 is > 100 µM (inactive).

What about the GI50 (SR) of the same compound?
The GI50 was 48.6 µM (inactive).

What about the GI50 (OVCAR-3) of the same compound?
Its GI50 is > 100 µM (inactive).

What about the GI50 (HOP-18) of the same compound?
The GI50 was > 100 µM (inactive).

And the GI50 (DLD-1)?
The GI50 was 90.2 µM (inactive).

And the GI50 (K562)?
The GI50 was > 100 µM (inactive).

And the GI50 (NCI-H460)?
Its GI50 is > 100 µM (inactive).

What about the GI50 (RXF 393) of the same compound?
Its GI50 is 26.5 µM (inactive).

What about the GI50 (SN12C) of the same compound?
Its GI50 is > 100 µM (inactive).

And the GI50 (SNB-75)?
Its GI50 is > 100 µM (inactive).

What about the GI50 (U-251) of the same compound?
Its GI50 is > 100 µM (inactive).

What about the GI50 (RPMI-8226) of the same compound?
The GI50 was 50.4 µM (inactive).

What about the GI50 (KM12) of the same compound?
The GI50 was 29.9 µM (inactive).

What about the GI50 (HOP-62) of the same compound?
The GI50 was > 100 µM (inactive).

What about the GI50 (UACC-62) of the same compound?
Its GI50 is 31.4 µM (inactive).

What about the GI50 (OVCAR-4) of the same compound?
The GI50 was 75.9 µM (inactive).

And the GI50 (ACHN)?
Its GI50 is 29 µM (inactive).

What about the GI50 (786-0) of the same compound?
The GI50 was > 100 µM (inactive).

What about the GI50 (SK-MEL-28) of the same compound?
The GI50 was > 100 µM (inactive).

And the GI50 (LXFL 529)?
The GI50 was 44.4 µM (inactive).

And the GI50 (SNB-78)?
Its GI50 is > 100 µM (inactive).

And the GI50 (SW-620)?
The GI50 was 34 µM (inactive).

And the GI50 (M19-MEL)?
Its GI50 is > 100 µM (inactive).

What about the GI50 (SK-MEL-2) of the same compound?
Its GI50 is 68.9 µM (inactive).

What about the GI50 (HOP-92) of the same compound?
The GI50 was 13.7 µM (inactive).

What about the GI50 (UO-31) of the same compound?
The GI50 was 98.4 µM (inactive).

What about the GI50 (IGROV-1) of the same compound?
Its GI50 is 80.4 µM (inactive).

And the GI50 (COLO 205)?
The GI50 was > 100 µM (inactive).

And the GI50 (HCT-116)?
The GI50 was > 100 µM (inactive).

And the GI50 (OVCAR-8)?
Its GI50 is > 100 µM (inactive).

What about the GI50 (SF-295) of the same compound?
Its GI50 is 28.4 µM (inactive).

What about the GI50 (XF498) of the same compound?
Its GI50 is > 100 µM (inactive).

Which GI50 (SK-MEL-5) does the source give for CC1CN1c1c(C(=O)/C=C/c2ccc(F)cc2)c(-c2ccccc2)nn(C)c1=O (stereo unspecified) here?
Its GI50 is 16 µM (inactive).

And the GI50 (NCI-H23)?
Its GI50 is 14 µM (inactive).

What about the GI50 (HCT-15) of the same compound?
Its GI50 is greater than 10 µM.

And the GI50 (KM-20L2)?
Its GI50 is 17.7 µM (inactive).

And the GI50 (DMS-114)?
The GI50 was 15.7 µM (inactive).

And the GI50 (MOLT-4)?
The GI50 was 14.3 µM (inactive).

And the GI50 (EKVX)?
The GI50 was 19 µM (inactive).

What about the GI50 (LOX IMVI) of the same compound?
Its GI50 is 13.7 µM (inactive).

What about the GI50 (HT-29) of the same compound?
The GI50 was 16.9 µM (inactive).

What about the GI50 (CCRF-CEM) of the same compound?
The GI50 was 13.8 µM (inactive).

And the GI50 (CAKI-1)?
The GI50 was > 10 µM (inactive).

And the GI50 (DMS-273)?
Its GI50 is > 10 µM (inactive).

And the GI50 (SF-539)?
Its GI50 is > 10 µM (inactive).

What about the GI50 (A498) of the same compound?
The GI50 was > 10 µM (inactive).

And the GI50 (HL-60)?
The GI50 was 13.4 µM (inactive).

What about the GI50 (A549) of the same compound?
The GI50 was 18.3 µM (inactive).

What about the GI50 (SNB-19) of the same compound?
Its GI50 is 16 µM (inactive).

And the GI50 (M14)?
The GI50 was 16.9 µM (inactive).

And the GI50 (HCC 2998)?
The GI50 was 15.2 µM (inactive).

And the GI50 (UACC-257)?
Its GI50 is 14.2 µM (inactive).

And the GI50 (OVCAR-3)?
The GI50 was 15.4 µM (inactive).

What about the GI50 (HOP-18) of the same compound?
The GI50 was 15.2 µM (inactive).

And the GI50 (DLD-1)?
The GI50 was 12.8 µM (inactive).

What about the GI50 (K562) of the same compound?
The GI50 was > 10 µM (inactive).

What about the GI50 (NCI-H460) of the same compound?
Its GI50 is 17.1 µM (inactive).

What about the GI50 (RXF 393) of the same compound?
The GI50 was 10.3 µM (inactive).

What about the GI50 (SK-OV-3) of the same compound?
Its GI50 is > 10 µM (inactive).

What about the GI50 (SN12C) of the same compound?
The GI50 was 15.4 µM (inactive).

What about the GI50 (TK-10) of the same compound?
Its GI50 is 17.2 µM (inactive).

What about the GI50 (SNB-75) of the same compound?
Its GI50 is 14.3 µM (inactive).

What about the GI50 (U-251) of the same compound?
The GI50 was 15.5 µM (inactive).

What about the GI50 (NCI-H522) of the same compound?
The GI50 was > 10 µM (inactive).

What about the GI50 (RPMI-8226) of the same compound?
Its GI50 is 9.46 µM (inactive).

What about the GI50 (KM12) of the same compound?
The GI50 was 15.7 µM (inactive).

And the GI50 (HOP-62)?
Its GI50 is 23.8 µM (inactive).

And the GI50 (UACC-62)?
Its GI50 is 13.6 µM (inactive).

And the GI50 (OVCAR-4)?
The GI50 was 16.5 µM (inactive).

What about the GI50 (ACHN) of the same compound?
Its GI50 is 16.3 µM (inactive).

What about the GI50 (786-0) of the same compound?
Its GI50 is 15.4 µM (inactive).

And the GI50 (SK-MEL-28)?
The GI50 was 17.5 µM (inactive).

What about the GI50 (LXFL 529) of the same compound?
Its GI50 is 16.7 µM (inactive).

What about the GI50 (SNB-78) of the same compound?
The GI50 was 23.4 µM (inactive).

What about the GI50 (Malme-3M) of the same compound?
The GI50 was 16 µM (inactive).

And the GI50 (SW-620)?
The GI50 was 17.9 µM (inactive).

What about the GI50 (M19-MEL) of the same compound?
Its GI50 is 14.6 µM (inactive).

And the GI50 (SK-MEL-2)?
Its GI50 is 18.2 µM (inactive).

What about the GI50 (NCI-H226) of the same compound?
The GI50 was 11.9 µM (inactive).

What about the GI50 (HOP-92) of the same compound?
The GI50 was 6.58 µM (inactive).

And the GI50 (UO-31)?
The GI50 was 12.9 µM (inactive).

What about the GI50 (IGROV-1) of the same compound?
The GI50 was 19.8 µM (inactive).

And the GI50 (COLO 205)?
The GI50 was 18.5 µM (inactive).

What about the GI50 (SF-268) of the same compound?
The GI50 was 16.3 µM (inactive).

And the GI50 (HCT-116)?
Its GI50 is 13.5 µM (inactive).

And the GI50 (OVCAR-8)?
The GI50 was 14.2 µM (inactive).

And the GI50 (OVCAR-5)?
The GI50 was 12.3 µM (inactive).

What about the GI50 (SF-295) of the same compound?
The GI50 was 16.2 µM (inactive).

What about the GI50 (XF498) of the same compound?
The GI50 was 15.3 µM (inactive).
